Test results reported in patent US12345641B2, “Fluorescence quenching immunoassay” (IDEXX Laboratories, Inc., priority 2020, dated 2025).

Columns and labels:
anti-SDMA antibody = assay: SDMA dose response with SDMA tracer/SDMA antibody solution (Example 34); assay type: binding; conditions: SDMA 0 to 100 μg/dL added to SDMA-DFF, SDMA-DCF or SDMA-Fl tracer/antibody solution
Protocol: Solutions of various SDMA tracers (SDMA-Fl, SDMA-DFF, and SDMA-DCF) in PBS (with 0.1% Tween) were prepared at a concentrations 400 nM. Solutions of anti-SDMA antibody or anti-SDMA antibody conjugated to BHQ10 (4 eq.) in PBS were prepared at concentrations of 400 and 800 nM, respectively.
SDMA standard solutions were prepared by serially diluting SDMA in PBS (with 0.1% Tween) to provide a final SDMA concentration of 100, 50, 25, 12,5, 6.26, 0 μg/dL.
50 μl of each SDMA standard solution was added to the well of a 96-well UV transparent plate. 50 μl of the SDMA tracer/SDMA antibody solution was then added to each well, the resulting solution mixed well by shaking, and incubated at room temperature for 30 min.

α-Cholic Acid antibody = assay: Fluorescence quenching of CA-Fl with anti-cholic acid antibody in PBS (Example 41); assay type: binding
Protocol: A working solution of CA-Fl in PBS (100 nM) was prepared. The working solution was then combined with various equivalents of α-Cholic Acid antibody (1:1, v/v) (commercially available from Fitzgerald Industries of the Netherlands). The fluorescence was measured as a function of the ratio of antibody (Ab) to CA-Fl. The results are depicted in FIG. 33. […] The higher the ratio of antibody to CA-Fl tracer, the greater the amount of quenching.

SMILES	fluorescence intensity as a function of SDMA concentration (anti-SDMA antibody)	fluorescence quenching on complex formation with α-Cholic Acid antibody (α-Cholic Acid antibody)
C/N=C(\NC)NCCC[C@H](N)C(=O)O [SDMA, symmetrical dimethylarginine]	a dose response is observed	–
C[C@H](CCC(=O)NCc1c(O)ccc2c(-c3ccccc3C(=O)O)c3ccc(=O)cc-3oc12)[C@H]1CC[C@H]2[C@@H]3[C@H](O)C[C@@H]4C[C@H](O)CC[C@]4(C)[C@H]3C[C@H](O)[C@]12C [CA-Fl, Cholic Acid-Fluorescein Conjugate]	–	quenched
